Assay results: PubChem BioAssay AID248 (DTP/NCI, 2004)
Where “and” joins values, the source holds several entries; their conditions need not be identical. Identical values can stand only once. Toxic doses and inconclusive results are not listed. No stated cut-off is given here; in the data, active means T/C of 150% or more; inactive means T/C below 125%.

Test system: L1210 leukemia ip in BDF1 mice, survival T/C
Test: NCI In Vivo Anticancer Drug Screen. Data for tumor model L1210 Leukemia (intraperitoneal) in B6D2F1 (BDF1) mice
Settings: higher = longer survival
Outline: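 Antitumor effect is assessed in tumor-bearing animals. Survival in the compound arm is compared with a vehicle-dosed control arm and expressed as their quotient.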

Measured: T/C

N=[N+]=CC(=O)OCC(N)C(=O)O (centres undefined)
inactive: endpoint: mean survival time, dose: 0.06 mg/kg/injection, schedule: Q#A X Z (ip), vehicle: saline 117 % of control | endpoint: mean survival time, dose: 0.43 mg/kg/injection, schedule: Q01DX009 (ip), vehicle: saline 111 % of control | endpoint: mean survival time, dose: 0.5 mg/kg/injection, schedule: Q01DX010 (ip), vehicle: saline 119 % of control | endpoint: mean survival time, dose: 0.5 mg/kg/injection, schedule: Q01DX Z (ip), vehicle: saline 117 % of control and 118 % of control | endpoint: mean survival time, dose: 0.85 mg/kg/injection, schedule: Q01DX009 (ip), vehicle: saline 105 % of control and 111 % of control | endpoint: mean survival time, dose: 1.0 mg/kg/injection, schedule: Q01DX Z (ip), vehicle: saline 115 % of control | endpoint: mean survival time, dose: 1.3 mg/kg/injection, schedule: Q04DX002 (ip), vehicle: saline 98 % of control and 112 % of control | endpoint: mean survival time, dose: 1.7 mg/kg/injection, schedule: Q01DX009 (ip), vehicle: saline 115 % of control | endpoint: mean survival time, dose: 1.8 mg/kg/injection, schedule: Q01DX Z (ip), vehicle: carboxymethylcellulose (CMC) 108 % of control and 120 % of control | endpoint: mean survival time, dose: 2.0 mg/kg/injection, schedule: Q01DX005 (ip), vehicle: saline 114 % of control | endpoint: mean survival time, dose: 2.0 mg/kg/injection, schedule: Q01DX Z (oral), vehicle: saline 110 % of control | endpoint: mean survival time, dose: 2.0 mg/kg/injection, schedule: Q01DX Z (sc), vehicle: saline 118 % of control | endpoint: mean survival time, dose: 2.5 mg/kg/injection, schedule: Q04DX002 (ip), vehicle: saline 106 % of control and 110 % of control | endpoint: mean survival time, dose: 3.5 mg/kg/injection, schedule: Q07DX003 (ip), vehicle: saline 115 % of control | endpoint: mean survival time, dose: 4.0 mg/kg/injection, schedule: Q01DX009 (ip), vehicle: saline 121 % of control | endpoint: mean survival time, dose: 4.0 mg/kg/injection, schedule: Q01DX Z (im), vehicle: saline 118 % of control | endpoint: mean survival time, dose: 4.0 mg/kg/injection, schedule: Q01DX Z (sc), vehicle: saline 119 % of control | endpoint: mean survival time, dose: 4.0 mg/kg/injection, schedule: Q03HX024 (oral), vehicle: saline 117 % of control | endpoint: mean survival time, dose: 4.0 mg/kg/injection, schedule: Q## X003 (ip), vehicle: saline 106 % of control | endpoint: mean survival time, dose: 5.0 mg/kg/injection, schedule: Q04DX002 (ip), vehicle: saline 117 % of control and 121 % of control | endpoint: mean survival time, dose: 7.0 mg/kg/injection, schedule: Q07DX003 (ip), vehicle: saline 117 % of control | endpoint: mean survival time, dose: 8.0 mg/kg/injection, schedule: Q01DX009 (ip), vehicle: saline 121 % of control | endpoint: mean survival time, dose: 8.0 mg/kg/injection, schedule: Q01DX009 (oral), vehicle: saline 105 % of control and 107 % of control | endpoint: mean survival time, dose: 8.0 mg/kg/injection, schedule: Q04DX003 (ip), vehicle: saline 113 % of control | endpoint: mean survival time, dose: 8.0 mg/kg/injection, schedule: Q## X002 (ip), vehicle: saline 102 % of control | endpoint: mean survival time, dose: 8.0 mg/kg/injection, schedule: Q## X003 (ip), vehicle: saline 107 % of control and 113 % of control | endpoint: mean survival time, dose: 8.0 mg/kg/injection, schedule: Q## X003 (oral), vehicle: saline 97 % of control and 101 % of control | endpoint: mean survival time, dose: 8.0 mg/kg/injection, schedule: Q## X024 (oral), vehicle: saline 106 % of control | endpoint: mean survival time, dose: 14.0 mg/kg/injection, schedule: Q01DX001 (ip), vehicle: saline 120 % of control and 121 % of control | endpoint: mean survival time, dose: 14.0 mg/kg/injection, schedule: Q07DX003 (ip), vehicle: saline 117 % of control | endpoint: mean survival time, dose: 16.0 mg/kg/injection, schedule: Q01DX001 (ip), vehicle: saline 108 % of control | endpoint: mean survival time, dose: 16.0 mg/kg/injection, schedule: Q01DX001 (sc), vehicle: saline 98 % of control | endpoint: mean survival time, dose: 16.0 mg/kg/injection, schedule: Q01DX006 (iv), vehicle: saline 107 % of control | endpoint: mean survival time, dose: 16.0 mg/kg/injection, schedule: Q04DX003 (ip), vehicle: saline 112 % of control | endpoint: mean survival time, dose: 16.0 mg/kg/injection, schedule: Q04DX003 (oral), vehicle: saline 101 % of control and 104 % of control | endpoint: mean survival time, dose: 16.0 mg/kg/injection, schedule: Q## X002 (ip), vehicle: saline 103 % of control | endpoint: mean survival time, dose: 16.0 mg/kg/injection, schedule: Q## X003 (ip), vehicle: saline 116 % of control | endpoint: mean survival time, dose: 16.0 mg/kg/injection, schedule: Q## X003 (oral), vehicle: saline 111 % of control and 113 % of control | endpoint: mean survival time, dose: 16.0 mg/kg/injection, schedule: Q## X024 (oral), vehicle: saline 97 % of control and 104 % of control | endpoint: mean survival time, dose: 18.0 mg/kg/injection, schedule: Q01DX014 (ip), vehicle: saline 117 % of control | endpoint: mean survival time, dose: 27.0 mg/kg/injection, schedule: Q01DX001 (ip), vehicle: saline 104 % of control | endpoint: mean survival time, dose: 28.0 mg/kg/injection, schedule: Q01DX001 (ip), vehicle: saline 120 % of control | endpoint: mean survival time, dose: 28.0 mg/kg/injection, schedule: Q07DX003 (ip), vehicle: saline 120 % of control | endpoint: mean survival time, dose: 32.0 mg/kg/injection, schedule: Q01DX001 (ip), vehicle: saline 111 % of control | endpoint: mean survival time, dose: 32.0 mg/kg/injection, schedule: Q01DX001 (sc), vehicle: saline 105 % of control | endpoint: mean survival time, dose: 32.0 mg/kg/injection, schedule: Q01DX009 (ip), vehicle: saline 102 % of control and 119 % of control | endpoint: mean survival time, dose: 32.0 mg/kg/injection, schedule: Q01DX009 (sc), vehicle: saline 109 % of control | endpoint: mean survival time, dose: 32.0 mg/kg/injection, schedule: Q01DX Z (ip), vehicle: saline 95 % of control | endpoint: mean survival time, dose: 32.0 mg/kg/injection, schedule: Q01DX Z (sc), vehicle: saline 118 % of control | endpoint: mean survival time, dose: 32.0 mg/kg/injection, schedule: Q04DX003 (ip), vehicle: saline 115 % of control | endpoint: mean survival time, dose: 32.0 mg/kg/injection, schedule: Q04DX003 (oral), vehicle: saline 110 % of control | endpoint: mean survival time, dose: 32.0 mg/kg/injection, schedule: Q## X002 (ip), vehicle: saline 120 % of control | endpoint: mean survival time, dose: 32.0 mg/kg/injection, schedule: Q## X003 (ip), vehicle: saline 117 % of control | endpoint: mean survival time, dose: 32.0 mg/kg/injection, schedule: Q## X003 (oral), vehicle: saline 109 % of control and 120 % of control | endpoint: mean survival time, dose: 32.0 mg/kg/injection, schedule: Q## X024 (oral), vehicle: saline 121 % of control | endpoint: mean survival time, dose: 35.0 mg/kg/injection, schedule: Q02DX010 (ip), vehicle: other 95 % of control | endpoint: mean survival time, dose: 36.0 mg/kg/injection, schedule: Q02DX010 (ip), vehicle: other 110 % of control | endpoint: mean survival time, dose: 40.0 mg/kg/injection, schedule: Q01DX001 (ip), vehicle: saline 112 % of control | endpoint: mean survival time, dose: 40.0 mg/kg/injection, schedule: Q01DX Z (ip), vehicle: saline 99 % of control | endpoint: mean survival time, dose: 52.0 mg/kg/injection, schedule: Q02DX010 (ip), vehicle: carboxymethylcellulose (CMC) 107 % of control | endpoint: mean survival time, dose: 54.0 mg/kg/injection, schedule: Q02DX010 (ip), vehicle: other 106 % of control | endpoint: mean survival time, dose: 60.0 mg/kg/injection, schedule: Q01DX001 (ip), vehicle: saline 121 % of control | endpoint: mean survival time, dose: 64.0 mg/kg/injection, schedule: Q01DX001 (ip), vehicle: saline 110 % of control | endpoint: mean survival time, dose: 64.0 mg/kg/injection, schedule: Q01DX001 (oral), vehicle: saline 103 % of control | endpoint: mean survival time, dose: 64.0 mg/kg/injection, schedule: Q01DX001 (sc), vehicle: saline 110 % of control | endpoint: mean survival time, dose: 64.0 mg/kg/injection, schedule: Q04DX003 (ip), vehicle: saline 104 % of control and 112 % of control | endpoint: mean survival time, dose: 64.0 mg/kg/injection, schedule: Q04DX003 (oral), vehicle: saline 106 % of control and 120 % of control | endpoint: mean survival time, dose: 64.0 mg/kg/injection, schedule: Q## X002 (ip), vehicle: saline 118 % of control | endpoint: mean survival time, dose: 64.0 mg/kg/injection, schedule: Q## X003 (oral), vehicle: saline 117 % of control and 119 % of control | endpoint: mean survival time, dose: 72.0 mg/kg/injection, schedule: Q## X032 (ip), vehicle: saline 115 % of control and 116 % of control | endpoint: mean survival time, dose: 80.0 mg/kg/injection, schedule: Q04DX002 (ip), vehicle: saline 104 % of control | endpoint: mean survival time, dose: 96.0 mg/kg/injection, schedule: Q03DX006 (ip), vehicle: saline 102 % of control | endpoint: mean survival time, dose: 108.0 mg/kg/injection, schedule: Q## X032 (ip), vehicle: saline 101 % of control | endpoint: mean survival time, dose: 112.0 mg/kg/injection, schedule: Q01DX001 (ip), vehicle: saline 114 % of control | endpoint: mean survival time, dose: 128.0 mg/kg/injection, schedule: Q01DX001 (sc), vehicle: saline 105 % of control | endpoint: mean survival time, dose: 128.0 mg/kg/injection, schedule: Q04DX003 (oral), vehicle: saline 110 % of control | endpoint: mean survival time, dose: 128.0 mg/kg/injection, schedule: Q## X024 (ip), vehicle: saline 112 % of control | endpoint: median survival time, dose: 0.25 mg/kg/injection, schedule: Q03HX024 (ip), vehicle: water 105 % of control | endpoint: median survival time, dose: 2.0 mg/kg/injection, schedule: Q01DX009 (ip), vehicle: water 120 % of control
